Reference: paper PMC12198282, “Application of a high-density microelectrode array assay using a 3D human iPSC-derived brain microphysiological system model for in vitro neurotoxicity screening of environmental compounds” (Archives of Toxicology, 2025)
Where two headings read alike, the source gives them in different places.

How the values were obtained:
[1] = system: human iPSC-derived 3D BrainSpheres; assay: BrainSphere MEA assay (HD-MEA, 13-day exposure, concentration-response); assay type: cell-based; conditions: for EC (benchmark response 1.349 SD): 312 h; for AC50: Supplement 3 prints it also for curves with hit call 0; for hitc Mean.Spheroid.Burst.Duration: key: 1 (active); 0 (inactive); for hitc Mean.Spheroid.Burst.ISI: key: 1 (active); 0 (inactive); for hitc Mean.Spheroid.Burst.Peak.Firing.Rate: key: 1 (active); 0 (inactive); for hitc Mean.Spheroid.Firing.Rate: key: 1 (active); 0 (inactive); for hitc Mean.Spheroid.IBI: key: 1 (active); 0 (inactive); for hitc Mean.Spheroid.Nonburst.ISI: key: 1 (active); 0 (inactive); for hitc Mean.Spheroid.Spikes.per.Burst.per.Electrode: key: 1 (active); 0 (inactive); for hitc Mean.Spheroid.Spikes.per.Burst: key: 1 (active); 0 (inactive); for hitc Spheroid.Burst.Frequency: key: 1 (active); 0 (inactive); for hitc Spheroid.Spike.Amplitude.90th.Percentile: key: 1 (active); 0 (inactive)
Description: A volume of 1 ml of Tergazyme (1% solution in deionized water) was added to each well of the MaxTwo 6-Well Plate (MaxWell Biosystems) and incubated overnight under constant gyratory shaking (88 RPM) at 37 °C and 5% CO2. The next day, Tergazyme solution was removed, and plates were washed with distilled water and ethanol. After remaining ethanol was evaporated, wells were washed with PBS. Then, 200 µl of Poly-D-Lysine (Gibco, A38904 - 01) was added on top of the electrodes and incubated at 37 °C and 5% CO2 for 3 h (humidified). Poly-D-Lysine was then removed, and wells were coated with 100 µl of 0.1 mg/ml laminin coating solution (Sigma-Aldrich, L2020 - 1 mg) and incubated for 2 h at 37 ℃ and 5% CO2 (humidified). The laminin was removed after incubation. Using a 1 ml micropipette, 1 ml of medium containing BrainSpheres (7 weeks differentiated), approximately 25 BrainSpheres per ml, was plated on top of the HD-MEA chip (Fig. 1A). Afterwards, the plate was placed in an incubator at 37 °C and 5% CO2 and moved in circles to accumulate the BrainSpheres on top of the electrode area (Fig. 1A). The plate was kept in an incubator (humidified) for 2 days to allow attachment of the BrainSpheres with no gyratory shaking of the plates.
The MaxTwo high-density microelectrode array system (MaxWell Biosystems AG, Zurich, Switzerland) was used to measure neural activity with MaxTwo 6-well plates, where every well includes an integrated chip with 26,400 platinum electrodes arranged in an area of 3.85 × 2.10 mm^2 ([…]) (Muller et al. [2015]). The data were recorded and analyzed with the MaxLab Live Software (version 22.2.22). First, the MaxLab live ActivityScan Assay was used to identify the activity and positioning of the BrainSpheres on the array by scanning all the 26,400 electrodes in 29 configurations in a well (Assay Parameters: Configuration = Full; Recording time per configuration = 60 s (s)). The settings gain = 512, high-pass-filter (HPF): ~ 1 Hz and spike threshold = 5 X root-mean square (RMS) noise were used for all HD-MEA recordings. Circular regions of interest (ROI) were manually selected in the Activity Map where neuronal activity was apparent by an increased activity (Fig. 2). Over the course of the 13-day experiment, the same selected regions and electrodes were measured using the MaxLab Live Network Assay (600 s recording time).
A custom analysis framework was used to extract the MaxLab Live neuronal metrics for the individual BrainSpheres. For this, electrodes comprising a single ROI (i.e., individual BrainSphere; Fig. 2D) were grouped using distance-based clustering (fcluster method of Scipy library, Python 3.7) and neural metrics were calculated for the clustered electrodes for every ROI separately. Figure 2E presents a raster plot illustrating the activity associated with individual Regions of Interest (ROIs). […] Ten MaxLab Live neural metrics (endpoints) were evaluated from the MaxLab live ActivityScan and Network Assay in this study. See Table 3 for the endpoint definitions, tuned parameters, and activity type (general versus network connectivity).
The BrainSphere MEA assay measured changes in neural activity during a 13-day chemical exposure. The first recording day of the concentration–response screening protocol (day of exposure (DOE) 0) occurred after 7 weeks of BrainSphere differentiation, 48 h after plating on HD-MEA plates (Fig. 1B). The study included at least three biological replicates (one well per plate) from separate experiments (e.g., three different plates on three different days) and each well included multiple BrainSpheres which were considered technical replicates.

2D rat cortical cultures = conditions: cytotoxicity LDH, cited from earlier work
[2] = AUC over 13-day exposure, tcplfit2
[3] = tcplfit2 BMD at benchmark response (1.349*SD of baseline controls)
[4] = tcplfit2 output ACC, activity cutoff in Supplemental Table 1

C/C(=C/C=C/[C@@H](C)C(=O)O)[C@H]1CN[C@H](C(=O)O)[C@H]1CC(=O)O [Domoic acid]
Difference of minimum potency between BrainSphere MEA assay and rNFA ([1]; 5th percentile of AC50 values by chemical, above 0.5 = more potent in the rNFA): more than 0.5 log10 µM | hitc Mean.Spheroid.Burst.Duration [1, 2]: 1 | hitc Mean.Spheroid.Burst.ISI [1, 2]: 1 | hitc Mean.Spheroid.Burst.Peak.Firing.Rate [1, 2]: 1 | hitc Mean.Spheroid.Firing.Rate [1, 2]: 1 | hitc Mean.Spheroid.IBI [1, 2]: 1 | hitc Mean.Spheroid.Nonburst.ISI [1, 2]: 1 | hitc Mean.Spheroid.Spikes.per.Burst [1, 2]: 1 | hitc Mean.Spheroid.Spikes.per.Burst.per.Electrode [1, 2]: 1 | hitc Spheroid.Burst.Frequency [1, 2]: 1 | hitc Spheroid.Spike.Amplitude.90th.Percentile [1, 2]: 0 | EC (benchmark response 1.349 SD) ([1]; Homo sapiens, read-out: BMD Mean.Spheroid.Burst.ISI): 2.6 µM | EC (benchmark response 1.349 SD) ([1]; Homo sapiens, read-out: BMD Mean.Spheroid.Nonburst.ISI): 0.99 µM | EC50 ([1]; Homo sapiens, read-out: Mean potency): 3.32 µM | EC50 ([1]; Homo sapiens, read-out: Minimum potency): 1.3 µM | AC50 ([1]; Homo sapiens, read-out: ac50 Mean.Spheroid.Burst.Duration, concentration at 50% maximal activity): 3.6 µM | AC50 ([1]; Homo sapiens, read-out: ac50 Mean.Spheroid.Burst.ISI, concentration at 50% maximal activity): 4.4 µM | AC50 ([1]; Homo sapiens, read-out: ac50 Mean.Spheroid.Burst.Peak.Firing.Rate, concentration at 50% maximal activity): 3.1 µM | AC50 ([1]; Homo sapiens, read-out: ac50 Mean.Spheroid.Firing.Rate, concentration at 50% maximal activity): 5.4 µM | AC50 ([1]; Homo sapiens, read-out: ac50 Mean.Spheroid.IBI, concentration at 50% maximal activity): 3.55 µM | AC50 ([1]; Homo sapiens, read-out: ac50 Mean.Spheroid.Nonburst.ISI, concentration at 50% maximal activity): 1 µM | AC50 ([1]; Homo sapiens, read-out: ac50 Mean.Spheroid.Spikes.per.Burst, concentration at 50% maximal activity): 3 µM | AC50 ([1]; Homo sapiens, read-out: ac50 Mean.Spheroid.Spikes.per.Burst.per.Electrode, concentration at 50% maximal activity): 1.7 µM | AC50 ([1]; Homo sapiens, read-out: ac50 Spheroid.Burst.Frequency, concentration at 50% maximal activity): 4.2 µM | AC50 ([1]; Homo sapiens, read-out: ac50 Spheroid.Spike.Amplitude.90th.Percentile, concentration at 50% maximal activity): 15 µM | Percent active ([1]; metrics active out of the total number of metrics screened): 90% | AC50 ([1]; read-out: ac50 Mean.Spheroid.Burst.Duration, concentration at 50% maximal activity, listed as L-Domoic acid): 3.58 µM | AC50 ([1]; read-out: ac50 Mean.Spheroid.Burst.ISI, concentration at 50% maximal activity, listed as L-Domoic acid): 4.36 µM | AC50 ([1]; read-out: ac50 Mean.Spheroid.Burst.Peak.Firing.Rate, concentration at 50% maximal activity, listed as L-Domoic acid): 3.1 µM | AC50 ([1]; read-out: ac50 Mean.Spheroid.Firing.Rate, concentration at 50% maximal activity, listed as L-Domoic acid): 5.41 µM | AC50 ([1]; read-out: ac50 Mean.Spheroid.Nonburst.ISI, concentration at 50% maximal activity, listed as L-Domoic acid): 1.02 µM | AC50 ([1]; read-out: ac50 Mean.Spheroid.Spikes.per.Burst.per.Electrode, concentration at 50% maximal activity, listed as L-Domoic acid): 1.71 µM | AC50 ([1]; read-out: ac50 Mean.Spheroid.Spikes.per.Burst, concentration at 50% maximal activity, listed as L-Domoic acid): 2.98 µM | AC50 ([1]; read-out: ac50 Spheroid.Burst.Frequency, concentration at 50% maximal activity, listed as L-Domoic acid): 4.17 µM | BMD Mean.Spheroid.Burst.Duration [1, 3]: 2 µM | BMD Mean.Spheroid.Burst.Peak.Firing.Rate [1, 3]: 2 µM | BMD Mean.Spheroid.Firing.Rate [1, 3]: 6.6 µM | BMD Mean.Spheroid.IBI [1, 3]: 1.9 µM | BMD Mean.Spheroid.Spikes.per.Burst [1, 3]: 1.3 µM | BMD Mean.Spheroid.Spikes.per.Burst.per.Electrode [1, 3]: 1.3 µM | BMD Spheroid.Burst.Frequency [1, 3]: 4.4 µM | BMD Spheroid.Spike.Amplitude.90th.Percentile [1, 3]: 14 µM | ACC Mean.Spheroid.Burst.Duration [1, 4]: 1.8 µM | ACC Mean.Spheroid.Burst.ISI [1, 4]: 1.8 µM | ACC Mean.Spheroid.Burst.Peak.Firing.Rate [1, 4]: 1.8 µM | ACC Mean.Spheroid.Firing.Rate [1, 4]: 9.9 µM | ACC Mean.Spheroid.IBI [1, 4]: 3.1 µM | ACC Mean.Spheroid.Nonburst.ISI [1, 4]: 1 µM | ACC Mean.Spheroid.Spikes.per.Burst [1, 4]: 2.8 µM | ACC Mean.Spheroid.Spikes.per.Burst.per.Electrode [1, 4]: 1.5 µM | ACC Spheroid.Burst.Frequency [1, 4]: 3.8 µM | ACC Spheroid.Spike.Amplitude.90th.Percentile [1, 4]: 18 µM | hitc CCTE_Shafer_MEA_dev_LDH (2D rat cortical cultures; rNFA mc5 hit call): 1 | AC50 (2D rat cortical cultures; read-out: ac50 CCTE_Shafer_MEA_dev_LDH, rNFA mc5): 6.75 µM
